20 compounds from PubChem BioAssay AID588631 (NMMLSC, 2011) can be followed below.

The target of the assay is Ras-related protein Rab7 wild type (dog). The assay is described as follows: Rab7 wildtype GTP binding inhibitors, SAR follow-up, biochemical, dog Rab7, bead multiplex flow cytometry, round 2 (AID 588631). Particulars: Bead-based multiplex flow cytometry, fluorescent GTP binding; for percent response (remaining binding): at 100 µM (top of the series). Background: A flow cytometer gives signals particle by particle.

pEC50: −log10 of the molar value. The source made the active and inactive calls. How the calls were made is not given here.

A word on the pEC50: it is −log10 of the EC50, conventionally taken in molar units. Consider `CC1(C)Cc2c(sc(NC(=S)NC(=O)c3ccc(Br)cc3)c2C(=O)O)CO1`, for which the pEC50 is 6.30.

Take `CC1(C)Cc2c(sc(NC(=S)NC(=O)c3cccs3)c2C(=O)O)CO1`: the pEC50 was 7.60.

Regarding `CC(C)(C)C1Cc2c(sc(NC(=S)NC(=O)c3ccccc3)c2C(=O)O)CO1` (stereo not given), the “percent response (remaining binding)” value is “inactive”.

Regarding `CC1(C)Cc2c(sc(NC(=S)NC(=O)c3cccc(F)c3)c2C(=O)O)CO1`, the pEC50 was 6.38.

Take `COc1cccc(C(=O)NC(=S)Nc2sc3c(c2C(=O)O)CC(C)(C)OC3)c1`: the pEC50 is 6.53.

`CC1(C)Cc2c(sc(NC(=S)NC(=O)c3cccc(Br)c3)c2C(=O)O)CO1`: the pEC50 is 5.40.

`CC1(C)Cc2c(sc(NC(=S)Nc3ccccc3)c2C(=O)O)CO1`: the “percent response (remaining binding)” value was “inactive”.

On to `CC1(C)Cc2c(sc(NC(=S)NC(=O)c3ccco3)c2C(=O)O)CO1`, for which the pEC50 is 7.13.

Consider `COc1ccccc1C(=O)NC(=S)Nc1sc2c(c1C(=O)O)CC(C)(C)OC2`, for which the pEC50 was 5.95.

In the case of `Cc1ccccc1C(=O)NC(=S)Nc1sc2c(c1C(=O)O)CC(C)(C)OC2`, the pEC50 was 6.39.

As to `CC1(C)Cc2c(sc(NC(=S)NC(=O)c3ccccc3F)c2C(=O)O)CO1`, the pEC50 was 6.50.

As for `CC1(C)CCc2sc(NC(=S)NC(=O)c3ccccc3)c(C(=O)O)c2C1`, the pEC50 is 7.34.

In the case of `CCC1(C)Cc2c(sc(NC(=S)NC(=O)c3ccccc3)c2C(=O)O)CO1` (stereo not given), the pEC50 is 7.43.

`COc1ccc(C(=O)NC(=S)Nc2sc3c(c2C(=O)O)CC(C)(C)OC3)cc1`: the pEC50 was 6.66.

For `Cc1ccc(C(=O)NC(=S)Nc2sc3c(c2C(=O)O)CC(C)(C)OC3)cc1`, the pEC50 was 6.87.

Turning to `O=C(NC(=S)Nc1sc2c(c1C(=O)O)CC1(CCCC1)OC2)c1ccccc1`, the pEC50 was 7.46.

For the compound `Cc1cccc(C(=O)NC(=S)Nc2sc3c(c2C(=O)O)CC(C)(C)OC3)c1`, the pEC50 was 5.94.

For the compound `CC1(C)Cc2c(sc(NC(=S)NC(=O)c3ccccc3Br)c2C(=O)O)CO1`, the pEC50 is 5.92.

Take `CC1(C)Cc2c(sc(NC(=S)NC(=O)C3CCCCC3)c2C(=O)O)CO1`: the pEC50 is 6.09.

For the compound `CC1(C)Cc2c(sc(NC(=S)NC(=O)c3ccc(F)cc3)c2C(=O)O)CO1`, the pEC50 is 7.02.
